Reference: patent publication US20220372066A1, “HUMAN SQUALAMINE DERIVATIVES (ENT-06), RELATED COMPOSITIONS COMPRISING THE SAME, AND METHOD OF USING THE SAME” (Enterin, Inc., priority 2019, published 2022)

Key:
[1] = system: mouse stomach tissues gene expression; assay: Treatment induced gene expression in mouse stomach tissues, RNA-sequencing, differential expression by fold change (Example 3); format: in vivo; settings: for Number of significant features, Down-regulated, fold change threshold 1.3× / Number of significant features, Down-regulated, fold change threshold 2× / Number of significant features, Down-regulated, fold change threshold 4× / Number of significant features, Down-regulated, fold change threshold 8× / Number of significant features, Down-regulated, fold change threshold 16× / Number of significant features, Down-regulated, fold change threshold Any / Number of significant features, Up-regulated, fold change threshold 1.3× / Number of significant features, Up-regulated, fold change threshold 2× / Number of significant features, Up-regulated, fold change threshold 4× / Number of significant features, Up-regulated, fold change threshold 8× / Number of significant features, Up-regulated, fold change threshold 16× / Number of significant features, Up-regulated, fold change threshold Any: stomach
[2] = system: mice with constipation due to overexpression of human αS; settings: orally administered; cited from earlier work
[3] = system: murine stomach tissue gene expression profile; assay: Congruence analysis of differentially expressed stomach genes, ENT-01 vs ENT-06; format: in vivo, mouse
Description: Genes that were differentially expressed in response to ENT-01 treatment, as identified in this study, were compared to those that were associated with ENT-06 treatments, respectively. ENT-06 treatment-associated gene expression changes were identified previously. Across all contrasts at the relevant statistical thresholds used to identify significant features, there were ten or less genes that changed in expression upon both treatments (ENT-01 and ENT-06). Note that this included the gene expression changes associated with ageing.
Congruence analysis was performed between the contrasts Specifically, the analysis compared the effects of human- or shark-origin compound analogues on murine stomach tissue gene expression profile as follows: ENT-01 was compared to ENT-06. Scatter plots, upset plots, venn diagrams, hypergeometric tests and Spearman rank correlation tests were employed to assess the level of overlap. […] Whereas the ENT-01 contrasts in this study defined significant genes using a cutoff of greater than four-fold change in expression.
Congruence between these sets of genes was then assessed by comparing ENT-01-affected genes to those of ENT-06. […] The symbol U denotes the universe. Overlap was assessed between ENT-01 vs control (young) (202 genes) and ENT-06 vs untreated (young) (26 genes). 10 genes overlapped between the two sets when not considering direction of change. […] The Spearman rank correlation between the genes in the two sets was −0.1313.
Congruence analysis for: ENT-01 vs ENT-06 (old) was also conducted. […] Overlap was assessed between ENT-01 vs control (old) (383 genes) and ENT-06 vs untreated (old) (55 genes). 1 genes overlapped between the two sets when not considering direction of change. This is no more than would be expected by chance (p=0.5057). The Spearman rank correlation between the genes in the two sets was 0.003217.

[4] = system: mouse stomach RNA transcriptome; assay: RNAseq of stomach transcriptome in old mice after oral squalamine (Example 1); format: in vivo; settings: oral dosing 14 days
Procedure: The dosing schedule used to determine the effect of orally administered squalamine and ENT-02 (MSI-1436) on the GI tracts of young and old mice was as follows. Male C57B1/6 mice, aged 20 and 78 weeks, were obtained from Jackson labs. Animals were exposed to 12 hr light dark cycles and provided Teklad standard mouse diet and water ad lib.
Animals were dosed once daily by oral gavage in the morning for a total of 14 days. Animals were fasted 3-4 hours prior to dosing and 1 hour following. The test article was dissolved in 0.5% hydroxypropylcellulose in water. On day 15 the animals were euthanized by C02 asphyxiation, necropsied, and tissues prepared for histology and RNAseq analysis.
The GI tracts of the animals were sectioned into stomach, duodenum, jejunum, ileum, caecum, colon, and rectum. The tissues were then sent for histology, and the transcriptomes analyzed by RNAseq.

[5] = molecular target: sodium-hydrogen exchanger (“NHE-3”) (Oryctolagus cuniculus, UniProt P26432); settings: Akhter, Nath et al. 1999; cited from earlier work
[6] = cutoff greater than four-fold change in expression
[7] = Old vs young mice, both treated
[8] = treatment vs control (old mice)
[9] = treatment vs control (young mice)

sodium-hydrogen exchanger (“NHE-3”), sequence (P26432 30-832): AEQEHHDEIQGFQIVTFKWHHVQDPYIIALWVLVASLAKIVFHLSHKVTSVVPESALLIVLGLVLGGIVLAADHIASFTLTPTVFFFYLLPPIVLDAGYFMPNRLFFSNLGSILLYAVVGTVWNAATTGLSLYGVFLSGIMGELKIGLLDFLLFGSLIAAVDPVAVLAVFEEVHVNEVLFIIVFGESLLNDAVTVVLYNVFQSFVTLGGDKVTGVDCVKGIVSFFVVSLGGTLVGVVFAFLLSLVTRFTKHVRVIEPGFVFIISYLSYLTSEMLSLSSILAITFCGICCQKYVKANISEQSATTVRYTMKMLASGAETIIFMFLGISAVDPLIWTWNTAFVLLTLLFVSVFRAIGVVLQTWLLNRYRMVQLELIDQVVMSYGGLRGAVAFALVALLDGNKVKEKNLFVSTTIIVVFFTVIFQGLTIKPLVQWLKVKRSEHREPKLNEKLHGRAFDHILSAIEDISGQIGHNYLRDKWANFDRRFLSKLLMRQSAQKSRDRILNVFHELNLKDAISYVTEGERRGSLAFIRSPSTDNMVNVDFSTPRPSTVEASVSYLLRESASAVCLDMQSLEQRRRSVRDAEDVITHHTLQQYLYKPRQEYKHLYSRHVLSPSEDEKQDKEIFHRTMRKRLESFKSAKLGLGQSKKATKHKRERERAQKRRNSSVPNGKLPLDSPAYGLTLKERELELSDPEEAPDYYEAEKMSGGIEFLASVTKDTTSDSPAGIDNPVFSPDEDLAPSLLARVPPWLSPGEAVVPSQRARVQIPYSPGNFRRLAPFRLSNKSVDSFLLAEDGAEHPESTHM

CC(C)[C@@H](CC[C@@H](C)[C@H]1CC[C@H]2[C@@H]3[C@H](O)C[C@H]4C[C@@H](NCCCNCCCCN)CC[C@]4(C)[C@H]3CC[C@]12C)OS(=O)(=O)O (single isomer, unassigned) [ENT-01, squalamine]
overlap of genes downregulated in aged mice with genes up-regulated in response to treatment in old mice ([1]; hypergeometric P<0.0001): overlapped significantly
gastro-intestinal motility [2]: stimulates gastro-intestinal motility
number of significant genes, treatment vs control (old) [3, 6]: 383 genes
number of significant genes, treatment vs control (young) [3, 6]: 202 genes
mRNA levels for all of the genes of Table 3 after treatment [4]: significant increase
inhibition of NHE-3 [5]: inhibit

CC(C)[C@@H](CC[C@@H](C)[C@H]1CC[C@H]2[C@@H]3[C@H](O)C[C@H]4C[C@@H](NCCCNCCCCNCCCN)CC[C@]4(C)[C@H]3CC[C@]12C)OS(=O)(=O)O (single isomer, unassigned) [ENT-02 (MSI-1436), trodusquemine]
Number of significant features, Down-regulated, fold change threshold 1.3× [1, 7]: 1986
Number of significant features, Down-regulated, fold change threshold 2× [1, 7]: 314
Number of significant features, Down-regulated, fold change threshold 4× [1, 7]: 63
Number of significant features, Down-regulated, fold change threshold 8× [1, 7]: 8
Number of significant features, Down-regulated, fold change threshold 16× [1, 7]: 4
Number of significant features, Down-regulated, fold change threshold Any [1, 7]: 7344
Number of significant features, Up-regulated, fold change threshold 1.3× [1, 7]: 2644
Number of significant features, Up-regulated, fold change threshold 2× [1, 7]: 676
Number of significant features, Up-regulated, fold change threshold 4× [1, 7]: 190
Number of significant features, Up-regulated, fold change threshold 8× [1, 7]: 78
Number of significant features, Up-regulated, fold change threshold 16× [1, 7]: 39
Number of significant features, Up-regulated, fold change threshold Any [1, 7]: 7669
Number of significant features, Down-regulated, fold change threshold 1.3× [1, 8]: 1395
Number of significant features, Down-regulated, fold change threshold 2× [1, 8]: 203
Number of significant features, Down-regulated, fold change threshold 4× [1, 8]: 38
Number of significant features, Down-regulated, fold change threshold 8× [1, 8]: 7
Number of significant features, Down-regulated, fold change threshold 16× [1, 8]: 1
Number of significant features, Down-regulated, fold change threshold Any [1, 8]: 7597
Number of significant features, Up-regulated, fold change threshold 1.3× [1, 8]: 2109
Number of significant features, Up-regulated, fold change threshold 2× [1, 8]: 657
Number of significant features, Up-regulated, fold change threshold 4× [1, 8]: 298
Number of significant features, Up-regulated, fold change threshold 8× [1, 8]: 139
Number of significant features, Up-regulated, fold change threshold 16× [1, 8]: 42
Number of significant features, Up-regulated, fold change threshold Any [1, 8]: 7416
Number of significant features, Down-regulated, fold change threshold 1.3× [1, 9]: 2429
Number of significant features, Down-regulated, fold change threshold 2× [1, 9]: 531
Number of significant features, Down-regulated, fold change threshold 4× [1, 9]: 120
Number of significant features, Down-regulated, fold change threshold 8× [1, 9]: 43
Number of significant features, Down-regulated, fold change threshold 16× [1, 9]: 16
Number of significant features, Down-regulated, fold change threshold Any [1, 9]: 7667
Number of significant features, Up-regulated, fold change threshold 1.3× [1, 9]: 1860
Number of significant features, Up-regulated, fold change threshold 2× [1, 9]: 232
Number of significant features, Up-regulated, fold change threshold 4× [1, 9]: 30
Number of significant features, Up-regulated, fold change threshold 8× [1, 9]: 7
Number of significant features, Up-regulated, fold change threshold 16× [1, 9]: 1
Number of significant features, Up-regulated, fold change threshold Any [1, 9]: 7346

C[C@H](CCC[C@@H](C)[C@H]1CCC2C3C(CC[C@@]21C)[C@@]1(C)CC[C@H](NCCCNCCCCN)C[C@@H]1C[C@H]3O)C(=O)O (single isomer, unassigned) [ENT-06, 3-β-Spermidino-7α-hydroxy-5α-cholestanoic acid]
Spearman rank correlation between the genes in the ENT-01 and ENT-06 sets ([3]; old mice): 0.003217
overlap of genes down-regulated in ageing and up-regulated in treatment, ENT-01 vs ENT-06 ([3]; old mice): did not overlap
genes overlapping with ENT-01 vs control (old) set, not considering direction of change ([3]; old mice, p=0.5057): 1 genes
number of significant genes, treatment vs untreated (old) ([3]; threshold FDR-adjusted P<0.05): 55 genes
number of significant genes, treatment vs untreated (young) ([3]; threshold FDR-adjusted P<0.05): 26 genes
genes overlapping with ENT-01 vs control (young) set, not considering direction of change ([3]; young mice, p=1.721e−16): 10 genes
Spearman rank correlation between the genes in the ENT-01 and ENT-06 sets ([3]; young mice, p=5.678e−57): −0.1313
